Measured values taken from the supplement of paper PMC10307832.

Columns and labels:
Assay in all cases: relative viability (nuclei count vs DMSO), 5 days (fraction); higher = more cells survive
[1] = compound: CC1=CC(=CC=C1)NC2=NC(=CS2)C3=CC=NC=C3 + Cc1cc(Nc2cc(N3CCN(C)CC3)nc(Sc3ccc(NC(=O)C4CC4)cc3)n2)n[nH]1 [Tozasertib] (partner 0.1 µM)
Procedure, shortened: (§1)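 Relative viability was taken as the ratio of nuclei in treated wells to nuclei in vehicle wells. Lung cancer cell lines in 1536-well plates received compounds by pin tool one day after seeding, either one drug alone or a fixed anchor-drug dose plus five library-drug doses (not always all listed) in √10 steps. Nuclei were counted on 4× images after 5 days of treatment, and values are medians of duplicate plates.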

Masitinib + Bortezomib = compound: Cc1ccc(NC(=O)c2ccc(CN3CCN(C)CC3)cc2)cc1Nc1nc(-c2cccnc2)cs1 [Masitinib] + CC(C)C[C@H](NC(=O)[C@H](Cc1ccccc1)NC(=O)c1cnccn1)B(O)O [Bortezomib] (partner 0.002 µM)
Procedure, shortened: as §1

Masitinib + Foretinib = compound: Cc1ccc(NC(=O)c2ccc(CN3CCN(C)CC3)cc2)cc1Nc1nc(-c2cccnc2)cs1 [Masitinib] + COc1cc2c(Oc3ccc(NC(=O)C4(C(=O)Nc5ccc(F)cc5)CC4)cc3F)ccnc2cc1OCCCN1CCOCC1 [Foretinib] (partner 0.25 µM)
Procedure, shortened: as §1

Masitinib + Linsitinib = compound: Cc1ccc(NC(=O)c2ccc(CN3CCN(C)CC3)cc2)cc1Nc1nc(-c2cccnc2)cs1 [Masitinib] + C[C@]1(O)C[C@@H](c2nc(-c3ccc4ccc(-c5ccccc5)nc4c3)c3c(N)nccn32)C1 [Linsitinib] (partner 1 µM)
Procedure, shortened: as §1

| Cell Line | relative viability ([1]; first compound 0.08 µM) | relative viability ([1]; first compound 0.253 µM) | relative viability ([1]; first compound 0.8 µM) | relative viability ([1]; first compound 2.53 µM) | relative viability ([1]; first compound 8 µM) | relative viability (Masitinib + Bortezomib; first compound 0.01 µM) | relative viability (Masitinib + Bortezomib; first compound 0.03162 µM) | relative viability (Masitinib + Bortezomib; first compound 0.1 µM) | relative viability (Masitinib + Bortezomib; first compound 0.3162 µM) | relative viability (Masitinib + Bortezomib; first compound 1 µM) | relative viability (Masitinib + Foretinib; first compound 0.01 µM) | relative viability (Masitinib + Foretinib; first compound 0.03162 µM) | relative viability (Masitinib + Foretinib; first compound 0.1 µM) | relative viability (Masitinib + Foretinib; first compound 0.3162 µM) | relative viability (Masitinib + Foretinib; first compound 1 µM) | relative viability (Masitinib + Linsitinib; first compound 0.01 µM) | relative viability (Masitinib + Linsitinib; first compound 0.03162 µM) | relative viability (Masitinib + Linsitinib; first compound 0.1 µM) | relative viability (Masitinib + Linsitinib; first compound 0.3162 µM) | relative viability (Masitinib + Linsitinib; first compound 1 µM) |
| --- | --- | --- | --- | --- | --- | --- | --- | --- | --- | --- | --- | --- | --- | --- | --- | --- | --- | --- | --- | --- |
| LCLC-103H | 0.529 | 0.405 | 0.427 | 0.429 | 0.388 | 0.821 | 1.23 | 1.02 | 0.948 | 0.994 | 0.743 | 0.684 | 0.773 | 0.703 | 0.735 | 0.796 | 1.02 | 0.859 | 1.01 | 1.08 |
| LOU-NH91 | 0.607 | 0.709 | 0.566 | 0.681 | 0.58 | 0.481 | 0.468 | 0.506 | 0.492 | 0.49 | 0.886 | 0.908 | 0.958 | 0.858 | 0.897 | 0.909 | 0.893 | 0.972 | 0.928 | 0.911 |
| LU99A | 0.247 | 0.265 | 0.297 | 0.257 | 0.28 | 1.03 | 1.12 | 1.02 | 1.21 | 1.07 | 0.901 | 0.823 | 0.877 | 1.01 | 0.822 | 0.511 | 0.53 | 0.512 | 0.719 | 0.505 |
| LXF-289 | 0.168 | 0.182 | 0.188 | 0.189 | 0.13 | 0.876 | 0.97 | 0.966 | 1.06 | 0.992 | 0.792 | 0.965 | 0.951 | 1.01 | 0.988 | 0.804 | 0.999 | 0.901 | 0.981 | 0.944 |
| NCI-H23 | 0.404 | 0.324 | 0.296 | 0.253 | 0.418 | 1.06 | 1.05 | 1.14 | 1.03 | 1.11 | 0.945 | 1.05 | 1.04 | 0.564 | 1.01 | 0.656 | 0.58 | 0.613 | 0.525 | 0.493 |
| NCI-H322M | 0.419 | 0.444 | 0.478 | 0.519 | 0.492 | 1.23 | 1.11 | 1.26 | 1.21 | 1.17 | 0.973 | 0.896 | 1.02 | 0.935 | 0.948 | 0.975 | 0.736 | 0.91 | 0.681 | 0.912 |
| NCI-H441 | 0.617 | 0.536 | 0.527 | 0.492 | 0.484 | 0.777 | 0.451 | 0.658 | 0.673 | 0.448 | 0.909 | 0.976 | 1.12 | 1.48 | 0.691 | 0.563 | 0.532 | 0.501 | 0.534 | 0.497 |
| NCI-H460 | 0.486 | 0.337 | 0.395 | 0.0737 | 0.113 | 1.03 | 1 | 1.2 | 1.15 | 1.28 | 1.02 | 1.08 | 1.06 | 0.864 | 0.977 | 0.934 | 0.934 | 0.977 | 1.26 | 1.07 |
| NCI-H520 | 0.372 | 0.458 | 0.481 | 0.514 | 0.458 | 0.598 | – | 0.629 | 0.686 | 0.774 | 0.899 | 0.937 | 0.987 | 0.695 | 0.762 | 1.12 | – | 1.15 | 0.97 | 0.915 |
| NCI-H596 | 0.93 | 0.968 | 0.745 | 0.861 | 0.746 | 1.09 | 1.06 | 1.2 | 1.01 | 1.23 | 0.859 | 0.9 | 0.947 | 0.869 | 0.891 | 1.21 | 0.98 | 1.05 | 1.14 | 1.05 |
| NCI-H647 | 0.266 | 0.29 | 0.286 | 0.316 | 0.222 | 1.03 | 0.768 | 1.1 | 1.05 | 1.09 | 1.34 | 1.19 | 1.46 | 1.04 | 1.19 | 1.03 | 1.19 | 1.03 | 0.849 | 1.26 |
| NCI-H650 | 0.654 | 0.646 | 0.78 | 0.645 | 0.727 | 0.82 | 0.565 | 0.95 | 1.08 | 0.635 | 0.978 | 0.966 | 1.14 | 0.977 | 1.01 | 0.796 | 0.752 | 0.896 | 0.981 | 0.806 |
| NCI-H661 | 0.33 | 0.367 | 0.353 | 0.341 | 0.333 | 0.867 | 0.74 | 0.927 | 0.761 | 0.585 | 0.945 | 1.05 | 1.04 | 0.95 | 0.965 | 0.653 | 0.569 | 0.577 | 0.584 | 0.428 |
| NCI-H727 | – | 0.582 | 0.539 | 0.58 | 0.458 | 0.846 | 0.847 | 1.02 | 1.04 | 0.744 | 0.673 | 1.02 | 1 | 0.891 | 0.85 | 0.228 | 0.268 | 0.297 | 0.281 | 0.196 |
| NCI-H838 | 0.229 | 0.227 | 0.242 | 0.234 | 0.225 | 0.793 | 0.83 | 0.965 | 0.758 | 0.69 | 0.926 | 0.837 | 1.18 | 0.813 | 1.05 | 0.895 | 0.913 | 1.16 | 0.86 | 1.05 |
| NCI-H1355 | 0.518 | 0.516 | 0.428 | 0.335 | 0.281 | 0.949 | 1.3 | 1.02 | 1.02 | 1.06 | 0.914 | 0.797 | 1.04 | 0.758 | 0.968 | 0.808 | 0.697 | 0.884 | 0.743 | 0.801 |
